Assay: Suspension assay testing: epinephrine dissolved in suspension
Assay type: physicochemical
Source text: Sample numbers /1 and /2 were not acidic. To confirm that these samples produced solid state epinephrine rather than dissolved epinephrine, I had these samples assayed to determine whether the epinephrine had in fact dissolved into solution and if so, by what amount.
Sample numbers /3 and /4 were basic pH. I thus had these samples assayed to determine whether the epinephrine dissolved into solution and if so, by what amount.

CNC[C@H](O)c1ccc(O)c(O)c1 [Epinephrine, 4-[(1 R)-1-Hydroxy-2-(methylamino)ethyl]-1,2-benzenediol]
total epinephrine that dissolves in water (basic pH 8.5): about 0.1%
total epinephrine that dissolves in water (pH 7, without added acid): about 0.45%
